Data: patent US20210122730A1, “GLUCOCORTICOID RECEPTOR MODULATORS” (ORIC Pharmaceuticals, Inc., priority 2017, published 2021)

Each molecule was assayed against T1, GR (Homo sapiens, UniProt P04150) (assay: In Vitro GR Luciferase Reporter Assay (antagonist mode, CHO-K1-GR-MMTV-Luc reporter cells)). Conditions: antagonist assay with 10 nM Dexamethasone, 18-24 hours.
T1 construct: expressed in transfected cells; host or cells: CHO-K1
T1 sequence (P04150 1-777): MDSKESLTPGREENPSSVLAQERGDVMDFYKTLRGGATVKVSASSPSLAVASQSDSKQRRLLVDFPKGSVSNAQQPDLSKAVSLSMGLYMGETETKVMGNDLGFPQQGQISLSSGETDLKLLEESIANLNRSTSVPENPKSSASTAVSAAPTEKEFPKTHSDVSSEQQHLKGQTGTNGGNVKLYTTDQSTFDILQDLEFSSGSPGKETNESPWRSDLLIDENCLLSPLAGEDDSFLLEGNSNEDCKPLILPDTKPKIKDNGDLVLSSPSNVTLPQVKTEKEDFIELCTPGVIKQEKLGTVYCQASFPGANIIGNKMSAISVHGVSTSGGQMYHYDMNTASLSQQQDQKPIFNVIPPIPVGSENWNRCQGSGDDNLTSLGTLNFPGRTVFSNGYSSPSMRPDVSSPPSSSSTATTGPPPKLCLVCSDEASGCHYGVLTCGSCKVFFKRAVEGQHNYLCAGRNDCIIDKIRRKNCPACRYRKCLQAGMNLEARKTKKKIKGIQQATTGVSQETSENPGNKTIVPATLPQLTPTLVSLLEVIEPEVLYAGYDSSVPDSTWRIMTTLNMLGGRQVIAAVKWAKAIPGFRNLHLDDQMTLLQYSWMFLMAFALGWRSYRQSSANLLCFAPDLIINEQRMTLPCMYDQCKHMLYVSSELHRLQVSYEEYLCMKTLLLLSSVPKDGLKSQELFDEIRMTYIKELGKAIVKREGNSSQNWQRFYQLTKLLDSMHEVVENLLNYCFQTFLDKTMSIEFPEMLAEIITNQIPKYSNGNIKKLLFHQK
Type: cell-based
Method in brief: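 Antagonist mode: compounds (8 serial 1:5 dilutions) added to GR-MMTV-luciferase CHO-K1 reporter cells co-exposed to 10 nM dexamethasone final, in phenol red-free DMEM plus 10% CSS. After roughly 18-24 h at 37° C, OneGlo luminescence read and IC50 calculated.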

| SMILES | IC50 [nM] |
| --- | --- |
| O=C(c1cc(C(F)(F)F)ccn1)[C@]12Cc3cnn(-c4ccc(F)cc4)c3C=C1CC[C@H](S(=O)(=O)c1ccc(F)cc1)C2 [Example 64, ((4aS,6S)-1-(4-fluorophenyl)-6-((4-fluorophenyl)sulfonyl)-1,4,5,6,7,8-hexahydro-4aH-benzo[f]indazol-4a-yl)(4-(trifluoromethyl)pyridin-2-yl)methanone] | ≤ 100 |
| CN([C@H]1CCC2=Cc3c(cnn3-c3ccc(F)cc3)C[C@]2(C(=O)c2nccs2)C1)S(=O)(=O)c1ccc(F)cc1 [Example 106, 4-fluoro-N-((4aS,6S)-1-(4-fluorophenyl)-4a-(thiazole-2-carbonyl)-4,4a,5,6,7,8-hexahydro-1H-benzo[f]indazol-6-yl)-N-methylbenzenesulfonamide] | ≤ 100 |
| O=C(c1ccccn1)[C@]12Cc3cnn(-c4ccc(F)cc4)c3C=C1CC[C@@H](S(=O)(=O)c1cccc(C(F)(F)F)c1)C2 [Example 18, ((4aS,6R)-1-(4-fluorophenyl)-6-((3-(trifluoromethyl)phenyl)sulfonyl)-1,4,5,6,7,8-hexahydro-4aH-benzo[f]indazol-4a-yl)(pyridin-2-yl)methanone] | ≤ 100 |

The next lines start with the values.

| IC50 [nM] | SMILES |
| --- | --- |
| ≤ 100 | O=C(c1cc(C(F)(F)F)ccn1)[C@]12Cc3cnn(-c4ccc(F)cc4)c3C=C1CC[C@H](S(=O)(=O)c1ccccn1)C2 [Example 41, ((4aS,6S)-1-(4-fluorophenyl)-6-(pyridin-2-ylsulfonyl)-1,4,5,6,7,8-hexahydro-4aH-benzo[f]indazol-4a-yl)(4-(trifluoromethyl)pyridin-2-yl)methanone] |
| ≤ 100 | Cc1ccc(S(=O)(=O)[C@H]2CCC3=Cc4c(cnn4-c4ccc(F)cc4)C[C@]3(C(=O)c3nccs3)C2)cc1 [Example 8, ((4aS,6S)-1-(4-fluorophenyl)-6-tosyl-1,4,5,6,7,8-hexahydro-4aH-benzo[f]indazol-4a-yl)(thiazol-2-yl)methanone] |

Same assay, conditions: antagonist mode, 10 nM Dexamethasone

| SMILES | IC50 [nM] |
| --- | --- |
| Cn1ccc(S(=O)(=O)N(C2CC2)[C@H]2CCC3=Cc4c(cnn4-c4ccc(F)nc4)C[C@]3(C(=O)c3ncc(C(F)(F)F)s3)C2)n1 [Example 399, N-cyclopropyl-N-((4aS,6S)-1-(6-fluoropyridin-3-yl)-4a-(5-(trifluoromethyl)thiazole-2-carbonyl)-4,4a,5,6,7,8-hexahydro-1H-benzo[f]indazol-6-yl)-1-methyl-1H-pyrazole-3-sulfonamide] | ≤ 100 |
| O=C(c1ncc(C(F)(F)F)s1)[C@]12Cc3cnn(-c4ccc(F)cc4)c3C=C1CC[C@H](N(C1COC1)S(=O)(=O)c1ccc(F)cc1)C2 [Example 205, 4-fluoro-N-((4aS,6S)-1-(4-fluorophenyl)-4a-(5-(trifluoromethyl)thiazole-2-carbonyl)-4,4a,5,6,7,8-hexahydro-1H-benzo[f]indazol-6-yl)-N-(oxetan-3-yl)benzenesulfonamide] | ≤ 100 |
| Cn1cnc(S(=O)(=O)CC2CCC3=Cc4c(cnn4-c4ccc(F)cc4)C[C@]3(C(=O)c3ncc(C(F)(F)F)s3)C2)n1 (stereo partly drawn) [Example 379, ((4aR)-1-(4-fluorophenyl)-6-(((1-methyl-1H-1,2,4-triazol-3-yl)sulfonyl)methyl)-1,4,5,6,7,8-hexahydro-4aH-benzo[f]indazol-4a-yl)(5-(trifluoromethyl)thiazol-2-yl)methanone] | ≤ 100 |
| Cn1cc(S(=O)(=O)C[C@@H]2CCC3=Cc4c(cnn4-c4ccc(F)cc4)C[C@]3(C(=O)c3cc(C(F)(F)F)ccn3)C2)cn1 (single isomer, unassigned) [Example 119] | ≤ 100 |
| Cn1cnc(S(=O)(=O)N(CCC#N)[C@H]2CCC3=Cc4c(cnn4-c4ccc(F)cc4)C[C@]3(C(=O)c3ncc(C(F)(F)F)s3)C2)n1 [Example 388, N-(2-cyanoethyl)-N-((4aS,6S)-1-(4-fluorophenyl)-4a-(5-(trifluoromethyl)thiazole-2-carbonyl)-4,4a,5,6,7,8-hexahydro-1H-benzo[f]indazol-6-yl)-1-methyl-1H-1,2,4-triazole-3-sulfonamide] | ≤ 100 |
| COCCOCCN([C@H]1CCC2=Cc3c(cnn3-c3ccc(F)cc3)C[C@]2(C(=O)c2cc(C(F)(F)F)ccn2)C1)S(=O)(=O)c1ccc(F)cc1 [Example 404, 4-fluoro-N-((4aS,6S)-1-(4-fluorophenyl)-4a-(4-(trifluoromethyl)picolinoyl)-4,4a,5,6,7,8-hexahydro-1H-benzo[f]indazol-6-yl)-N-(2-(2-methoxyethoxy)ethyl)benzene-sulfonamide] | ≤ 100 |
| CC(C)(O)CN([C@H]1CCC2=Cc3c(cnn3-c3ccc(F)cc3)C[C@]2(C(=O)c2cc(C(F)(F)F)ccn2)C1)S(=O)(=O)c1ccc(Cl)nc1 [Example 302, 6-chloro-N-((4aS,6S)-1-(4-fluorophenyl)-4a-(4-(trifluoromethyl)picolinoyl)-4,4a,5,6,7,8-hexahydro-1H-benzo[f]indazol-6-yl)-N-(2-hydroxy-2-methylpropyl)pyridine-3-sulfonamide] | ≤ 100 |

Continued, values first:

| IC50 [nM] | SMILES |
| --- | --- |
| ≤ 100 | O=C(c1cc(C(F)(F)F)ccn1)[C@]12Cc3cnn(-c4ccc(F)cc4)c3C=C1CC[C@H](N(CC(F)F)S(=O)(=O)c1ccc(F)cc1)C2 [Example 407, N-(2,2-difluoroethyl)-4-fluoro-N-((4aS,6S)-1-(4-fluorophenyl)-4a-(4-(trifluoromethyl)picolinoyl)-4,4a,5,6,7,8-hexahydro-1H-benzo[f]indazol-6-yl)benzenesulfonamide] |
| ≤ 100 | Cn1cnc(S(=O)(=O)N(CC2CC2)[C@H]2CCC3=Cc4c(cnn4-c4ccc(F)cc4)C[C@]3(C(=O)c3cc(Cl)ccn3)C2)n1 [Example 410, N-((4aS,6S)-4a-(4-chloropicolinoyl)-1-(4-fluorophenyl)-4,4a,5,6,7,8-hexahydro-1H-benzo[f]indazol-6-yl)-N-(cyclopropylmethyl)-1-methyl-1H-1,2,4-triazole-3-sulfonamide] |
| ≤ 100 | CC(C)N([C@H]1CCC2=Cc3c(cnn3-c3ccc(F)cc3)C[C@]2(C(=O)c2cc(Cl)ccn2)C1)S(=O)(=O)c1ccc(Cl)nc1 [Example 323, 6-chloro-N-((4aS,6S)-4a-(4-chloropicolinoyl)-1-(4-fluorophenyl)-4,4a,5,6,7,8-hexahydro-1H-benzo[f]indazol-6-yl)-N-isopropylpyridine-3-sulfonamide] |
| ≤ 100 | O=C(c1ccc(Cl)cn1)[C@]12Cc3cnn(-c4ccc(F)cc4)c3C=C1CC[C@H](N(C1CC1)S(=O)(=O)c1ccc(F)cc1)C2 [Example 240, N-((4aS,6S)-4a-(5-chloropicolinoyl)-1-(4-fluorophenyl)-4,4a,5,6,7,8-hexahydro-1H-benzo[f]indazol-6-yl)-N-cyclopropyl-4-fluorobenzenesulfonamide] |
| ≤ 100 | Cn1cc(S(=O)(=O)N(C2COC2)[C@H]2CCC3=Cc4c(cnn4-c4ccc(F)cc4)C[C@]3(C(=O)c3ncc(C(F)(F)F)s3)C2)cn1 [Example 207, N-((4aS,6S)-1-(4-fluorophenyl)-4a-(5-(trifluoromethyl)thiazole-2-carbonyl)-4,4a,5,6,7,8-hexahydro-1H-benzo[f]indazol-6-yl)-1-methyl-N-(oxetan-3-yl)-1H-pyrazole-4-sulfonamide] |
| ≤ 100 | Cn1cc(S(=O)(=O)N(C2COC2)[C@H]2CCC3=Cc4c(cnn4-c4ccc(F)cc4)C[C@]3(C(=O)c3ncc(C(F)(F)F)s3)C2)nn1 [Example 218, N-((4aS,6S)-1-(4-fluorophenyl)-4a-(5-(trifluoromethyl)thiazole-2-carbonyl)-4,4a,5,6,7,8-hexahydro-1H-benzo[f]indazol-6-yl)-1-methyl-N-(oxetan-3-yl)-1H-1,2,3-triazole-4-sulfonamide] |
| ≤ 100 | O=C(c1cc(C(F)(F)F)ccn1)[C@]12Cc3cnn(-c4ccc(F)cc4)c3C=C1CC[C@H](N(CCF)S(=O)(=O)c1ccc(F)cc1)C2 [Example 387, 4-fluoro-N-(2-fluoroethyl)-N-((4aS,6S)-1-(4-fluorophenyl)-4a-(4-(trifluoromethyl)picolinoyl)-4,4a,5,6,7,8-hexahydro-1H-benzo[f]indazol-6-yl)benzenesulfonamide] |
| ≤ 100 | Cn1cc(S(=O)(=O)N(CCF)[C@H]2CCC3=Cc4c(cnn4-c4ccc(F)cc4)C[C@]3(C(=O)c3ncc(C(F)(F)F)s3)C2)nn1 [Example 394, N-(2-fluoroethyl)-N-((4aS,6S)-1-(4-fluorophenyl)-4a-(5-(trifluoromethyl)thiazole-2-carbonyl)-4,4a,5,6,7,8-hexahydro-1H-benzo[f]indazol-6-yl)-1-methyl-1H-1,2,3-triazole-4-sulfonamide] |
| ≤ 100 | CCN([C@H]1CCC2=Cc3c(cnn3-c3ccc(F)cc3)C[C@]2(C(=O)c2ccc(C3CC3)cn2)C1)S(=O)(=O)c1cnn(C)c1 [Example 136, N-((4aS,6S)-4a-(5-cyclopropylpicolinoyl)-1-(4-fluorophenyl)-4,4a,5,6,7,8-hexahydro-1H-benzo[f]indazol-6-yl)-N-ethyl-1-methyl-1H-pyrazole-4-sulfonamide] |
